Data: patent US9096608B2, “Pharmaceutically active pyrazolo-triazine derivatives” (LEAD DISCOVERY CENTER GMBH, priority 2012, dated 2015)

Tests used:
Format in all cases: biochemical
[1] = biological target: T1, CDK2/CycA (Homo sapiens, UniProt P24941); assay: CDK2 Enzymatic Activity Assay (Lance Kinase Activity Assay, FRET); details: Table 5B; symbols per IC50 ranges of b615
T1 construct: purchased Proqinase
Summary of the method: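 Compounds serially diluted 1:3 over 8 steps, run with CDK2/CycA, ULight-MBP substrate and ATP in HEPES pH 7.5 buffer for 1 h at room temperature. LANCE TR-FRET detection with Eu-anti-phospho-MBP after EDTA stop; IC50 from sigmoidal dose-response curves.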

[2] = biological target: T2, CDK7/CycH/Mat1 (Homo sapiens, UniProt P50613); assay: CDK7 Enzymatic Activity Assay (Lance Kinase Activity Assay, FRET); details: Table 5A; 25 μM ATP final; read-out: CDK7: IC50 [mM] for CDK7 inhibition (the above defined ranges apply)
T2 construct: purchased Carna
T2 sequence (P50613 whole entry): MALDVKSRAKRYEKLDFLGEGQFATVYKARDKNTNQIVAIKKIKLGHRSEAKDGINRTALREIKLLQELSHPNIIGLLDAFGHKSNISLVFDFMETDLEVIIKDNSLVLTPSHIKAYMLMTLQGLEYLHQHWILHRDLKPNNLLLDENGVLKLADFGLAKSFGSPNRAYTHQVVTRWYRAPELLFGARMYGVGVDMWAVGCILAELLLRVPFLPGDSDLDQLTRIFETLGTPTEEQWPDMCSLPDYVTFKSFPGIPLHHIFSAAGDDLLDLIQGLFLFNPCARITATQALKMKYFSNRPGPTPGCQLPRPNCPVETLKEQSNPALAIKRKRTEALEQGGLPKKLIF
T2 sequence (P51946 whole entry partner): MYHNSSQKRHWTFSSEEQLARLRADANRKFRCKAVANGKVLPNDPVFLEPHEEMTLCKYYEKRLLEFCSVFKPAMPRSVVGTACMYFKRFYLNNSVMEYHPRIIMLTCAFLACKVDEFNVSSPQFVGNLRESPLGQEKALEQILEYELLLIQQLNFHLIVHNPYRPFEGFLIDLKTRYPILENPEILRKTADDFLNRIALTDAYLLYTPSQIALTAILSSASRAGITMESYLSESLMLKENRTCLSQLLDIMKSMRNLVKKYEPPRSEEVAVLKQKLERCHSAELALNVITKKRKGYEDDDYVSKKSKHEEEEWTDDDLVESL
T2 sequence (P51948 whole entry partner): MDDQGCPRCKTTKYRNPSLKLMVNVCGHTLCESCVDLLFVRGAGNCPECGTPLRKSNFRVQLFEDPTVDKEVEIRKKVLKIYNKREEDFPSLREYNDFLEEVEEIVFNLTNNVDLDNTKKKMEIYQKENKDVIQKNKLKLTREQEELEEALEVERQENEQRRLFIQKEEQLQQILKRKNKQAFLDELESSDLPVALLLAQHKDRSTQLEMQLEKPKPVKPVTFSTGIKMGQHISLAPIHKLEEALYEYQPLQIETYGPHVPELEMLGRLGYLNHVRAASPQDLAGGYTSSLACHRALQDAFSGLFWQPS
Summary of the method: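 TR-FRET (LANCE) kinase assay with ULight-MBP peptide substrate and Eu-labelled anti-phospho antibody; compounds in 8-point 1:3 series in HEPES 50 mM pH 7.5, MgCl2 10 mM, EGTA 1 mM, DTT 2 mM, 0.01% Tween-20.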

[3] = biological target: T3, CDK9/Cyclin T1 (Homo sapiens, UniProt P50750); assay: CDK9 Enzymatic Activity Assay (Lance Kinase Activity Assay, FRET); details: Table 5B; symbols per IC50 ranges of b615
T3 construct: purchased Invitrogen
T3 sequence (P50750 whole entry): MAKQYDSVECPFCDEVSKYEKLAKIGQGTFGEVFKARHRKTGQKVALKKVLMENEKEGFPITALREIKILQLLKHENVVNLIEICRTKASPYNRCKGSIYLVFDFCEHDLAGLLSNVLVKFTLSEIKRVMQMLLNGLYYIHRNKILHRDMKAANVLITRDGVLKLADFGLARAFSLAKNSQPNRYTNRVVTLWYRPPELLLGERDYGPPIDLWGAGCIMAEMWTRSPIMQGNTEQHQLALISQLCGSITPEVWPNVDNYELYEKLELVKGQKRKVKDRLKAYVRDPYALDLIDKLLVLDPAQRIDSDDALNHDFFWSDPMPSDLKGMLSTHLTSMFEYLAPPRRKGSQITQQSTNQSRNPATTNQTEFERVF
T3 sequence (O60563 whole entry partner): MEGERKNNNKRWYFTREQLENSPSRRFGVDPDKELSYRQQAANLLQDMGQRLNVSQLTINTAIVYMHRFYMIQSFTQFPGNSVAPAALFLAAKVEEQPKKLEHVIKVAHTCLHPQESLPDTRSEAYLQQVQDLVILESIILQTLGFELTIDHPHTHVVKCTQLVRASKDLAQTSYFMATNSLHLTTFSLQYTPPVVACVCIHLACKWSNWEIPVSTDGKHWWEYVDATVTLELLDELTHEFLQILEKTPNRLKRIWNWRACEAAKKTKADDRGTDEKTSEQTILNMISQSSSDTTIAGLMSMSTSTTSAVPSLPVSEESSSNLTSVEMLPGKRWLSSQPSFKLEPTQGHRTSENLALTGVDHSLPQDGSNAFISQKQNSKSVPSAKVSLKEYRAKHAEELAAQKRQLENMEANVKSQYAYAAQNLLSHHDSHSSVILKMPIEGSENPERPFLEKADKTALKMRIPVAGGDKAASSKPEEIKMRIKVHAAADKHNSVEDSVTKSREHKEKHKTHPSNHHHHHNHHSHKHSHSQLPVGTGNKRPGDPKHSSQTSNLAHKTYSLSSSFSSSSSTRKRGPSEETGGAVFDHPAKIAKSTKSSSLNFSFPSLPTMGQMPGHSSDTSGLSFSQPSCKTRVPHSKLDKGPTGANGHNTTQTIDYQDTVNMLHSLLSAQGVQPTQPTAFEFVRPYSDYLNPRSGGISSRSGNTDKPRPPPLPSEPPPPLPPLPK
Summary of the method: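 TR-FRET detection of ULight-MBP substrate phosphorylation by CDK9/cyclin T1 using a Eu-anti-phospho-MBP antibody, in 50 mM HEPES pH 7.5, 10 mM MgCl2, 1 mM EGTA, 2 mM DTT, 0.01% Tween-20. Kinase reaction 1 h at room temperature, then EDTA detection buffer for 1 h before reading.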

Structure (SMILES) | CDK2 IC50 range class [1] | IC50 [2] [µM] | CDK9: Selectivity of CDK7 inhibition over CDK9 inhibition [fold] [3]
COc1cccc([C@H](C)Nc2nc(NCCN3CCCC3)nc3c(C(C)C)cnn23)c1 [(VIII-l), (S)-8-isopropyl-N4-(1-(3-methoxyphenyl)ethyl)-N2-(2-(pyrrolidin-1-yl)ethyl)pyrazolo[1,5-a][1,3,5]triazine-2,4-diamine] | +++ (IC50>2500 nM) | > 0.1 | +++ (IC50>2500 nM)
COc1cccc([C@H](C)Nc2nc(N(C)CCN3CCOCC3)nc3c(C(C)C)cnn23)c1 [(VIII-s), (S)-8-isopropyl-N4-(1-(3-methoxyphenyl)ethyl)-N2-methyl-N2-(2-morpholinoethyl)pyrazolo[1,5-a][1,3,5]triazine-2,4-diamine] | +++ (IC50>2500 nM) | > 0.1 | +++ (IC50>2500 nM)
CCOc1cccc([C@H](C)Nc2nc(O[C@@H]3CCCNC3)nc3c(C(C)C)cnn23)c1 [(VII-aV), N-((S)-1-(3-ethoxyphenyl)ethyl)-8-isopropyl-2-((R)-piperidin-3-yloxy)pyrazolo[1.5-a][1,3,5]triazin-4-amine] | +++ (IC50>2500 nM) | > 0.1 | +++ (IC50>2500 nM)
COc1cccc([C@H](C)Nc2nc(N3CC4(CCNC4)C3)nc3c(C(C)C)cnn23)c1 [(VIII-ae), (S)-8-isopropyl-N-(1-(3-methoxyphenyl)ethyl)-2-(2,6-diazaspiro[3.4]octan-2-yl)pyrazolo[1,5-a][1,3,5]triazin-4-amine] | +++ (IC50>2500 nM) | < 0.01 | +++ (IC50>2500 nM)
CC(C)c1cnn2c(NC(C)c3ccccc3-c3ccccc3)nc(O[C@@H]3CCCNC3)nc12 (stereo partly drawn) [(VII-as), N-(1-([1,1′-biphenyl]-2-yl)ethyl)-8-isopropyl-2-((R)-piperidin-3-yloxy)pyrazolo[1,5-a][1,3,5]triazin-4-amine] | +++ (IC50>2500 nM) | > 0.1 | +++ (IC50>2500 nM)
COc1cccc([C@H](C)Nc2nc(N3CCC(N)C3)nc3c(C(C)C)cnn23)c1 (stereo partly drawn) [(VIII-q), 2-(3-aminopyrrolidin-1-yl)-8-isopropyl-N-((S)-1-(3-methoxyphenyl)ethyl)pyrazolo[1,5-a][1,3,5]triazin-4-amine] | +++ (IC50>2500 nM) | > 0.1 | +++ (IC50>2500 nM)
COc1cccc([C@H](C)Nc2nc(NCCN3CCOCC3)nc3c(C(C)C)cnn23)c1 [(VIII-m), (S)-8-isopropyl-N4-(1-(3-methoxyphenyl)ethyl)-N2-(2-morpholinoethyl)pyrazolo[1,5-a][1,3,5]triazine-2,4-diamine] | +++ (IC50>2500 nM) | > 0.1 | +++ (IC50>2500 nM)
COc1cccc([C@H](C)Nc2nc(N3CCCC4(CCCCN4)C3)nc3c(C(C)C)cnn23)c1 (stereo partly drawn) [(VIII-ah), 8-isopropyl-N-((S)-1-(3-methoxyphenyl)ethyl)-2-(1,8-diazaspiro[5.5]undecan-8-yl)pyrazolo[1,5-a][1,3,5]triazin-4-amine] | +++ (IC50>2500 nM) | < 0.01 | +++ (IC50>2500 nM)
COc1cccc([C@H](C)Nc2nc(NCCN)nc3c(C(C)C)cnn23)c1 [(VIII-V), (S)-N2-(2-aminoethyl)-8-isopropyl-N4-(1-(3-methoxyphenyl)ethyl)pyrazolo[1,5-a][1,3,5]triazine-2,4-diamine] | +++ (IC50>2500 nM) | > 0.1 | +++ (IC50>2500 nM)
COc1cc(F)ccc1[C@H](C)Nc1nc(O[C@@H]2CCCNC2)nc2c(C(C)C)cnn12 [(VII-az), N-((S)-1-(4-fluoro-2-methoxyphenyl)ethyl)-8-isopropyl-2-((R)-piperidin-3-yloxy)pyrazolo[1,5-a][1,3,5]triazin-4-amine] | +++ (IC50>2500 nM) | 0.03 to 0.1 | +++ (IC50>2500 nM)
CC(C)c1cnn2c(N[C@@H](C)c3cccc4ccccc34)nc(O[C@@H]3CCCNC3)nc12 [(VII-am), 8-isopropyl-N-((S)-1-(naphthalen-1-yl)ethyl)-2-((R)-piperidin-3-yloxy)pyrazolo[1,5-a][1,3,5]triazin-4-amine] | +++ (IC50>2500 nM) | 0.01 to 0.03 | +++ (IC50>2500 nM)
Cc1ccccc1[C@H](C)Nc1nc(O[C@@H]2CCCNC2)nc2c(C(C)C)cnn12 [(VII-af), 8-isopropyl-2-((R)-piperidin-3-yloxy)-N-((S)-1-(o-tolyl)ethyl)pyrazolo[1,5-a][1,3,5]triazin-4-amine] | +++ (IC50>2500 nM) | 0.01 to 0.03 | +++ (IC50>2500 nM)
COc1cccc([C@H](C)Nc2nc(N3CCC4(CCN4)CC3)nc3c(C(C)C)cnn23)c1 [(VIII-aj), (S)-8-isopropyl-N-(1-(3-methoxyphenyl)ethyl)-2-(1,7-diazaspiro[3.5]nonan-7-yl)pyrazolo[1,5-a][1,3,5]triazin-4-amine] | +++ (IC50>2500 nM) | < 0.01 | +++ (IC50>2500 nM)
CC(C)c1cnn2c(NC(C)c3ccccc3N3CCCC3)nc(O[C@@H]3CCCNC3)nc12 (stereo partly drawn) [(VII-ap), 8-isopropyl-2-((R)-piperidin-3-yloxy)-N-(1-(2-(pyrrolidin-1-yl)phenyl)ethyl)pyrazolo[1,5-a][1,3,5]triazin-4-amine] | +++ (IC50>2500 nM) | > 0.1 | +++ (IC50>2500 nM)

Second part, the molecule after the results:

CDK2 IC50 range class [1] | IC50 [2] [µM] | CDK9: Selectivity of CDK7 inhibition over CDK9 inhibition [fold] [3] | Structure (SMILES)
+++ (IC50>2500 nM) | > 0.1 | +++ (IC50>2500 nM) | COc1cccc([C@H](C)Nc2nc(C(=O)N3CC4(CNC4)C3)nc3c(C(C)C)cnn23)c1 [(XXVI-1), (S)-(8-isopropyl-4-((1-(3-methoxyphenyl)ethyl)amino)pyrazolo[1,5-a][1,3,5]triazin-2-yl)(2,6-diazaspiro[3.3]heptan-2-yl)methanone]
+++ (IC50>2500 nM) | 0.03 to 0.1 | +++ (IC50>2500 nM) | COc1cccc([C@H](C)Nc2nc(NCC3CCNC3)nc3c(C(C)C)cnn23)c1 (stereo partly drawn) [(VIII-w), 8-isopropyl-N4-((S)-1-(3-methoxyphenyl)ethyl)-N2-(pyrrolidin-3-ylmethyl)pyrazolo[1,5-a][1,3,5]triazine-2,4-diamine]
+++ (IC50>2500 nM) | > 0.1 | +++ (IC50>2500 nM) | COc1cccc([C@H](C)Nc2nc(CN3CC(N4CCCC4=O)C3)nc3c(C(C)C)cnn23)c1 [(XXIX-10), (S)-1-(1-((8-isopropyl-4-((1-(3-methoxyphenyl)ethyl)amino)pyrazolo[1,5-a][1,3,5]triazin-2-yl)methyl)azetidin-3-yl)pyrrolidin-2-one]
+++ (IC50>2500 nM) | > 0.1 | +++ (IC50>2500 nM) | COc1cccc([C@H](C)Nc2nc(CNCCN)nc3c(C(C)C)cnn23)c1 [(XXIX-2), (S)-N1-((8-isopropyl-4-((1-(3-methoxyphenyl)ethyl)amino)pyrazolo[1,5-a][1,3,5]triazin-2-yl)methyl)ethane-1.2-diamine]
+++ (IC50>2500 nM) | > 0.1 | +++ (IC50>2500 nM) | COc1cccc([C@H](C)Nc2nc(CN(C)CCCN3CCCCC3)nc3c(C(C)C)cnn23)c1 [(XXIX-8), (S)-8-isopropyl-N-(1-(3-methoxyphenyl)ethyl)-2-((methyl(3-(piperidin-1-yl)propyl)amino)methyl)pyrazolo[1,5-a][1,3,5]triazin-4-amine]
+++ (IC50>2500 nM) | > 0.1 | +++ (IC50>2500 nM) | COc1cccc([C@H](C)Nc2nc(NC(CN)c3ccccc3)nc3c(C(C)C)cnn23)c1 (stereo partly drawn) [(VIII-z), N2-(2-amino-1-phenylethyl)-8-isopropyl-N4-((S)-1-(3-methoxyphenyl)ethyl)pyrazolo[1,5-a][1,3,5]triazine-2,4-diamine]
+++ (IC50>2500 nM) | > 0.1 | +++ (IC50>2500 nM) | COc1cccc([C@H](C)Nc2nc(CNCCCN3CCOCC3)nc3c(C(C)C)cnn23)c1 [(XXIX-5), (S)-8-isopropyl-N-(1-(3-methoxyphenyl)ethyl)-2-(((3-morpholinopropyl)amino)methyl)pyrazolo[1,5-a][1,3,5]triazin-4-amine]
+++ (IC50>2500 nM) | > 0.1 | +++ (IC50>2500 nM) | COc1cccc([C@H](C)Nc2nc(C(=O)N3CCNCC3)nc3c(C(C)C)cnn23)c1 [(XXVI-4), (S)-(8-isopropyl-4-((1-(3-methoxyphenyl)ethyl)amino)pyrazolo[1,5-a][1,3,5]triazin-2-yl)(piperazin-1-yl)methanone]
